Publication PMC8315801, “The fluoride permeation pathway and anion recognition in Fluc family fluoride channels” (eLife, 2021)

Columns and labels:
Test in all cases: biochemical
Fluc-Bpe [1] = target: Fluc-Bpe (Bordetella pertussis, UniProt Q7VYU0, R29K)
Source text: planar lipid bilayer, block of fluoride current, two-site fit on Fluc-Bpe

Fluc-Bpe [2] = target: Fluc-Bpe (Bordetella pertussis, UniProt Q7VYU0, R29K/S83C)
Source text: (§1) planar lipid bilayer, block of fluoride current, oriented channels, single-site fit on Fluc-Bpe

Fluc-Bpe [3] = target: Fluc-Bpe (Bordetella pertussis, UniProt Q7VYU0, E88Q/R29K/S83C)
Sequence of Fluc-Bpe (Bordetella pertussis, UniProt Q7VYU0, E88Q/R29K/S83C) (Q7VYU0 whole entry E88Q/R29K/S83C): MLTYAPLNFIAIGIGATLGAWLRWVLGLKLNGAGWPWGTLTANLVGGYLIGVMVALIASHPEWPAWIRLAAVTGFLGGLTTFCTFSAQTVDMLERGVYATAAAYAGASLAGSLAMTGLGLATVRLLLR
Source text: as §1

Sequence of Fluc-Bpe (Bordetella pertussis, UniProt Q7VYU0, R29K) (Q7VYU0 whole entry R29K): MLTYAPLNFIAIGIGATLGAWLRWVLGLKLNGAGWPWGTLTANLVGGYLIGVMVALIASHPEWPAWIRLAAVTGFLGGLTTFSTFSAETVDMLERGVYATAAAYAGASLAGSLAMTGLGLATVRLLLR
Sequence of Fluc-Bpe (Bordetella pertussis, UniProt Q7VYU0, R29K/S83C) (Q7VYU0 whole entry R29K/S83C): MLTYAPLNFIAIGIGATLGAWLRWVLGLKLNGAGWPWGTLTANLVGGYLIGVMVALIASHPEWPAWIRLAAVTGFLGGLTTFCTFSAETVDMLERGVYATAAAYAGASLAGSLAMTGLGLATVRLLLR

SMILES	Ki (Fluc-Bpe [1]) [mM]	Ki (Fluc-Bpe [2]) [mM]	Ki (Fluc-Bpe [3]) [mM]
O=[N+]([O-])O [NO3^-]	45	–	–
N#CO [OCN^-]	6.8	7.9	48.9
N#CS [SCN^-]	9	–	–
